Measurements taken from patent US12077503B2, “Substituted cyclic amides and their use as herbicides” (FMC CORPORATION, priority 2015, dated 2024).

Assays:
Type in all cases: in vivo
Kochia (Kochia scoparia) [1] = assay: Test A preemergence; settings: Bassia scoparia, pre-emergence, 240 h; for pest or weed control at 125 g/ha: 125 g ai/ha, Preemergence, visual injury rating after approximately 10 d, read-out: Kochia plant response rating (0 to 100 scale, 0 is no effect, 100 is complete control); for pest or weed control at 500 g/ha: 500 g ai/ha, preemergence, visual injury rating about 10 d after treatment, 0 to 100 scale (0 no effect, 100 complete control), read-out: Kochia plant response rating
Summary of the method: (§1)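 Each rating is a visual injury score from 0 to 100 given about 10 d after treatment, judged against untreated controls kept alongside in the greenhouse. In loam soil–sand blend, seeds got a preemergence directed soil spray, while postemergence plants were 2 to 10 cm tall at spraying.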

[2] = tested on: barnyardgrass (Echinochloa crus-galli); assay: Test A preemergence; settings: Echinochloa crus-galli, pre-emergence, 240 h; for pest or weed control at 125 g/ha: 125 g ai/ha, Preemergence, visual injury rating after approximately 10 d, read-out: Barnyardgrass plant response rating (0 to 100 scale, 0 is no effect, 100 is complete control); for pest or weed control at 500 g/ha: 500 g ai/ha, preemergence, visual injury rating about 10 d after treatment, 0 to 100 scale (0 no effect, 100 complete control), read-out: Barnyardgrass plant response rating
Summary of the method: as §1

[3] = tested on: pigweed (Amaranthus retroflexus); assay: Test A preemergence; settings: Amaranthus retroflexus, pre-emergence, 240 h; for pest or weed control at 125 g/ha: 125 g ai/ha, Preemergence, visual injury rating after approximately 10 d, read-out: Pigweed plant response rating (0 to 100 scale, 0 is no effect, 100 is complete control); for pest or weed control at 500 g/ha: 500 g ai/ha, preemergence, visual injury rating about 10 d after treatment, 0 to 100 scale (0 no effect, 100 complete control), read-out: Pigweed plant response rating
[4] = tested on: ragweed (common ragweed, Ambrosia elatior); assay: Test A preemergence; settings: Ambrosia artemisiifolia, pre-emergence, 240 h; for pest or weed control at 125 g/ha: 125 g ai/ha, Preemergence, visual injury rating after approximately 10 d, read-out: Ragweed plant response rating (0 to 100 scale, 0 is no effect, 100 is complete control); for pest or weed control at 500 g/ha: 500 g ai/ha, preemergence, visual injury rating about 10 d after treatment, 0 to 100 scale (0 no effect, 100 complete control), read-out: Ragweed plant response rating
Summary of the method: as §1

[5] = tested on: ryegrass, Italian (Italian ryegrass, Lolium multiflorum); assay: Test A preemergence; settings: Lolium multiflorum, pre-emergence, 240 h; for pest or weed control at 125 g/ha: 125 g ai/ha, Preemergence, visual injury rating after approximately 10 d, read-out: Ryegrass, Italian plant response rating (0 to 100 scale, 0 is no effect, 100 is complete control); for pest or weed control at 500 g/ha: 500 g ai/ha, preemergence, visual injury rating about 10 d after treatment, 0 to 100 scale (0 no effect, 100 complete control), read-out: Ryegrass, Italian plant response rating
Summary of the method: as §1

[6] = tested on: Galium (catchweed bedstraw, Galium aparine); assay: Test A postemergence; settings: Galium, post-emergence, 240 h, 125 g ai/ha, Postemergence; visual injury after approximately 10 d; 0 to 100 scale where 0 is no effect and 100 is complete control; read-out: Plant response rating, Galium
Summary of the method: as §1

Kochia (Kochia scoparia) [7] = assay: Test A postemergence; settings: Bassia scoparia, post-emergence, 240 h, 125 g ai/ha, Postemergence; visual injury after approximately 10 d; 0 to 100 scale where 0 is no effect and 100 is complete control; read-out: Plant response rating, Kochia
Summary of the method: as §1

[8] = tested on: barnyardgrass (Echinochloa crus-galli); assay: Test A postemergence; settings: Echinochloa crus-galli, post-emergence, 240 h, 125 g ai/ha, Postemergence; visual injury after approximately 10 d; 0 to 100 scale where 0 is no effect and 100 is complete control; read-out: Plant response rating, Barnyardgrass
Summary of the method: as §1

[9] = tested on: blackgrass (Alopecurus myosuroides); assay: Test A postemergence; settings: Alopecurus myosuroides, post-emergence, 240 h, 125 g ai/ha, Postemergence; visual injury after approximately 10 d; 0 to 100 scale where 0 is no effect and 100 is complete control; read-out: Plant response rating, Blackgrass
Summary of the method: as §1

corn (Zea mays) = assay: Test A postemergence; settings: Zea mays, post-emergence, 240 h, 125 g ai/ha, Postemergence; visual injury after approximately 10 d; 0 to 100 scale where 0 is no effect and 100 is complete control
Summary of the method: as §1

[10] = tested on: giant foxtail (Setaria faberii); assay: Test A postemergence; settings: Setaria faberi, post-emergence, 240 h, 125 g ai/ha, Postemergence; visual injury after approximately 10 d; 0 to 100 scale where 0 is no effect and 100 is complete control; read-out: Plant response rating, Foxtail, Giant
Summary of the method: as §1

[11] = tested on: pigweed (Amaranthus retroflexus); assay: Test A postemergence; settings: Amaranthus retroflexus, post-emergence, 240 h, 125 g ai/ha, Postemergence; visual injury after approximately 10 d; 0 to 100 scale where 0 is no effect and 100 is complete control; read-out: Plant response rating, Pigweed
Summary of the method: as §1

[12] = tested on: ragweed (common ragweed, Ambrosia elatior); assay: Test A postemergence; settings: Ambrosia artemisiifolia, post-emergence, 240 h, 125 g ai/ha, Postemergence; visual injury after approximately 10 d; 0 to 100 scale where 0 is no effect and 100 is complete control; read-out: Plant response rating, Ragweed
Summary of the method: as §1

[13] = tested on: ryegrass, Italian (Italian ryegrass, Lolium multiflorum); assay: Test A postemergence; settings: Lolium multiflorum, post-emergence, 240 h, 125 g ai/ha, Postemergence; visual injury after approximately 10 d; 0 to 100 scale where 0 is no effect and 100 is complete control; read-out: Plant response rating, Ryegrass, Italian
Summary of the method: as §1

[14] = tested on: wheat (Triticum aestivum); assay: Test A postemergence; settings: Triticum aestivum, post-emergence, 240 h, 125 g ai/ha, Postemergence; visual injury after approximately 10 d; 0 to 100 scale where 0 is no effect and 100 is complete control; read-out: Plant response rating, Wheat
Summary of the method: as §1

Row | SMILES | pest or weed control at 125 g/ha (Kochia (Kochia scoparia) [1]) | pest or weed control at 500 g/ha (Kochia (Kochia scoparia) [1]) | pest or weed control at 125 g/ha [2] | pest or weed control at 500 g/ha [2] | pest or weed control at 125 g/ha [3] | pest or weed control at 500 g/ha [3] | pest or weed control at 125 g/ha [4] | pest or weed control at 500 g/ha [4] | pest or weed control at 125 g/ha [5] | pest or weed control at 500 g/ha [5] | pest or weed control at 125 g/ha [6] | pest or weed control at 125 g/ha (Kochia (Kochia scoparia) [7]) | pest or weed control at 125 g/ha [8] | pest or weed control at 125 g/ha [9] | Corn plant response rating (crop injury, 0 = no effect, 100 = complete kill) at 125 g/ha (corn (Zea mays)) | pest or weed control at 125 g/ha [10] | pest or weed control at 125 g/ha [11] | pest or weed control at 125 g/ha [12] | pest or weed control at 125 g/ha [13] | plant injury at 125 g/ha [14]
1 | Cc1ccc([C@H]2CNC(=S)[C@@H]2C(=O)Nc2cccc(F)c2F)cc1 (racemic) [Compound 946] | 0% | 50% | 60% | 80% | 0% | 0% | 0% | 0% | 0% | 0% | 0% | 0% | 60% | 0% | 0% | 0% | 0% | 0% | 0% | 0%
2 | CN1CC[C@H](c2ccc(OC(F)(F)F)cc2)[C@@H](C(=O)Nc2ccccc2C(F)(F)F)C1=O [Compound 998] | 0% | 0% | 0% | 0% | 0% | 0% | 0% | 0% | 0% | 0% | 0% | 0% | 0% | 0% | 0% | 0% | 0% | 0% | 0% | 0%
3 | CCOc1cccc([C@H]2CN(C)C(=O)[C@@H]2C(=O)Nc2cccc(F)c2F)c1 [Compound 956] | 90% | 90% | 100% | 100% | 0% | 0% | 20% | 80% | 40% | 90% | 40% | 30% | 90% | 40% | 50% | 80% | 0% | 20% | 50% | 30%
